This note sets out measurements from the ASAP Discovery antiviral challenge data (2025).

SMILES strings stand for the structures. Converted amounts (≈) assume the structure as drawn. “And” between values parts separate entries of the source, which are not always exact repeats. Identical values can stand only once.

Settings in the first series: not given
By solubility (kinetic) is commonly meant solubility judged after dilution from a stock solution rather than from solid. Consider `Cn1ncc(-c2cc3c(N[C@H](c4ccc5c(n4)OCCO5)C(C)(C)C)ncnc3[nH]2)c1C#N` (racemic), for which the kinetic solubility came to 24 µM (≈ 10.7 µg/mL). Still for that read-out and setting: under `CC(C)[C@H](Nc1ncnc2[nH]c(-c3cnn(C)c3C#N)cc12)c1ccc2c(c1)NC(=O)CO2` (racemic) stands 69 µM (≈ 30.5 µg/mL); under `O=C(Nc1ccc2c(c1)CNC2)c1cc(Cl)cc2[nH]ncc12`, 279 µM (≈ 87.3 µg/mL).

As to `CC(C)[C@H](Nc1ncnc2[nH]c(-c3cnn(CC(=O)N(C)C)c3)cc12)c1ccc2c(c1)S(=O)(=O)CCC2` (racemic), the solubility (kinetic) was found to be 38 µM (≈ 19.8 µg/mL). Same read-out and setting: under `CNC(=O)c1cc2c(N[C@H](c3ccc4c(c3)OCCO4)C(C)C)ncnc2[nH]1` (racemic) stands 380 µM (≈ 145 µg/mL); under `CNCc1cc(-c2cc3c(N[C@H](c4ccc5c(c4)S(=O)(=O)CCC5)C(C)C)ncnc3[nH]2)co1` (single isomer, unassigned), 358 µM and 345 µM; under `CCNC(=O)c1cc2c(N[C@H](c3ccc4c(c3)S(=O)(=O)CCO4)C(C)C)ncnc2[nH]1` (racemic), 328 µM (≈ 145 µg/mL). Still for that read-out and setting: the figure for `CCNC(=O)c1cc2c(N[C@H](c3ccc4c(c3)S(=O)(=O)CCC4)C(C)C)ncnc2[nH]1` (racemic) is 336 µM (≈ 148 µg/mL). In turn, `CC(C)[C@H](Nc1ncnc2[nH]c(-c3cnn(C)c3C#N)cc12)c1ccc2c(c1)OCCO2` (racemic) displayed a kinetic solubility of 17 µM (≈ 7.3 µg/mL). Same read-out and setting: under `O=C(Nc1ccc2c(c1)CNC2)c1cc(Cl)cc2c1cnn2C1CCC1` stands 172 µM (≈ 63.1 µg/mL); under `N#Cc1cccc(-c2nc3c(C(=O)Nc4ccc5c(c4)CNC5)cc(F)cc3[nH]2)c1`, 3 µM (≈ 1.19 µg/mL); under `O=C(Nc1cc2c(cc1Br)CNC2)c1cc(F)cc2[nH]ncc12`, 47 µM (≈ 17.6 µg/mL). Still for that read-out and setting: under `Cn1cc2c(C(=O)Nc3ccc4c(c3)CNC4)cc(F)cc2n1` stands 309 µM (≈ 95.9 µg/mL). Compound `O=C(Nc1cc2c(cc1C1CC1)CNC2)c1cc(F)cc2[nH]ncc12` registered a solubility (kinetic) of 189 µM (≈ 63.6 µg/mL). Same read-out and setting: under `CCNC(=O)c1cc2c(N[C@H](c3ccc4c(c3)S(=O)(=O)CCC4)C(C)C)ncnc2[nH]1` (single isomer, unassigned) stands 337 µM and 316 µM. In turn, `O=C(Nc1cc2c(c(C3=CCOCC3)c1)CNC2)c1cc(F)cc2[nH]ncc12` registered a solubility (kinetic) of 157 µM (≈ 59.4 µg/mL). On the same count and under the same terms, the figure for `O=C(Nc1ccc2c(c1)CNC2)c1cc(Cl)cc2cn[nH]c12` is 184 µM (≈ 57.5 µg/mL). `O=C(Nc1ccc2c(c1)CNC2)c1cc(F)cc2c1CCC2` displayed a solubility (kinetic) of 187 µM (≈ 55.4 µg/mL). Still for that read-out and setting: the figure for `O=C(Nc1ccc2c(c1)CNC2)c1cc(Cl)cc2ccncc12` is 181 µM (≈ 58.6 µg/mL); for `CC(C)[C@H](Nc1ncnc2[nH]c(-c3cnn(C)c3C#N)cc12)c1ccc2c(c1)NC(=O)CO2` (single isomer, unassigned) it is 26 µM and 19 µM; for `Cn1c(=O)[nH]c2c(C(=O)Nc3ccc4c(c3)CNC4)cc(Br)cc21` it is 161 µM (≈ 62.3 µg/mL). The same measure, in the same setting: under `COc1cc(-c2cc(NC(=O)c3cc(F)cc4[nH]ncc34)cc3c2CNC3)ccn1` stands 180 µM (≈ 72.6 µg/mL); under `CNC(=O)c1cc2c(N[C@H](c3ccc4c(c3)S(=O)(=O)CCC4)C(C)C)ncnc2[nH]1` (single isomer, unassigned), 374 µM and 397 µM; under `CCCC[C@H](NC(=O)OC(C)(C)C)C(=O)N[C@H](C(=O)NCc1ccc(CN)cc1)c1ccc(OCc2ccccc2)cc1` (mixture of isomers), 143 µM. On the same count and under the same terms, the figure for `Cc1cc(-c2noc(C(F)(F)F)n2)ccc1OCCCc1cc(C(=O)N(C)C)no1` is 9 µM (≈ 3.82 µg/mL); for `CNC(=O)c1cc(Cl)c(F)cc1NS(=O)(=O)c1ccc(Oc2ccccc2Cl)cc1` it is 49 µM (≈ 23 µg/mL); for `O=C(Nc1ccc2c(c1)CNC2)c1cc(F)cc2[nH]c(-c3ccc(F)cc3)nc12` it is 6 µM (≈ 2.34 µg/mL). As for `CC(C)[C@H](Nc1ncnc2[nH]ccc12)c1ccc2c(c1)NC(=O)CO2` (single isomer, unassigned), the solubility (kinetic) was 371 µM and 374 µM. As for `CC(C)[C@H](Nc1ncnc2[nH]c(-c3cnn(CC(N)=O)c3)cc12)c1ccc2c(c1)OCCO2` (single isomer, unassigned), the solubility (kinetic) was 280 µM and 332 µM.

For the compound `O=C(Nc1cc2c(c(-c3c[nH]c(=O)c(F)c3)c1)CNC2)c1cc(F)cc2[nH]ncc12`, the solubility (kinetic) came out at 66 µM (≈ 26.9 µg/mL). With `O=C(Nc1cc2c(c(C3=CCS(=O)(=O)CC3)c1)CNC2)c1cc(F)cc2[nH]ncc12`, the kinetic solubility came out at 141 µM (≈ 60.1 µg/mL). Still for that read-out and setting: the figure for `CC(C)NC(=O)[C@H](Nc1ccc2c(c1)CNC2)c1cc(Cl)cc2[nH]c(-c3ccccc3)nc12` (single isomer, unassigned) is 134 µM (≈ 61.6 µg/mL).

For a further series the following is noted: human; liver_microsomes.
One may read the microsomal CLint as a measure of how fast metabolising enzymes remove a compound, apart from limits set by blood flow. Read a low microsomal CLint as greater metabolic stability. `Cn1ncc(-c2cc3c(N[C@H](c4ccc5c(n4)OCCO5)C(C)(C)C)ncnc3[nH]2)c1C#N` (racemic): the microsomal CLint turned out to be 81 µL/min/mg. On the same count and under the same terms, the figure for `CC(C)[C@H](Nc1ncnc2[nH]c(-c3cnn(C)c3C#N)cc12)c1ccc2c(c1)NC(=O)CO2` (racemic) is 100 µL/min/mg. Still for that read-out and setting: under `CC(C)[C@H](Nc1ncnc2[nH]c(-c3cnn(CC(=O)N(C)C)c3)cc12)c1ccc2c(c1)S(=O)(=O)CCC2` (racemic) stands 106 µL/min/mg; under `CNC(=O)c1cc2c(N[C@H](c3ccc4c(c3)OCCO4)C(C)C)ncnc2[nH]1` (racemic), 79 µL/min/mg.

In the case of `CNCc1cc(-c2cc3c(N[C@H](c4ccc5c(c4)S(=O)(=O)CCC5)C(C)C)ncnc3[nH]2)co1` (single isomer, unassigned), the microsomal CLint is 67 µL/min/mg and 133 µL/min/mg. The same measure, in the same setting: the figure for `CCNC(=O)c1cc2c(N[C@H](c3ccc4c(c3)S(=O)(=O)CCO4)C(C)C)ncnc2[nH]1` (racemic) is 64 µL/min/mg.

The compound `CCNC(=O)c1cc2c(N[C@H](c3ccc4c(c3)S(=O)(=O)CCC4)C(C)C)ncnc2[nH]1` (racemic) displayed a microsomal CLint of 108 µL/min/mg.
